# Measurements: US20090264401A1, “SUBSTITUTED PYRIMIDIN-5-CARBOXAMIDES 281” (AstraZeneca AB, priority 2008, published 2009)
# Target: T1, human 11βHSD1 enzyme (Homo sapiens, UniProt P28845)
# T1 construct: baculovirus expressed N terminal 6-His tagged full length human 11βHSD1 enzyme; 6-His (N); made in house
# Assay: 11βHSD1 cortisone to cortisol conversion, competitive HTRF assay
# Type: biochemical
# Conditions: human 11-βHSD; test concentration of 30 μM of compound
# Method in brief: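 Enzyme was baculovirus-expressed, N-terminal 6-His-tagged full-length human 11βHSD1, purified on a copper chelate column. Compounds were added in buffer containing 1% DMSO at 10-fold final concentration.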
# T1 sequence (P28845 whole entry): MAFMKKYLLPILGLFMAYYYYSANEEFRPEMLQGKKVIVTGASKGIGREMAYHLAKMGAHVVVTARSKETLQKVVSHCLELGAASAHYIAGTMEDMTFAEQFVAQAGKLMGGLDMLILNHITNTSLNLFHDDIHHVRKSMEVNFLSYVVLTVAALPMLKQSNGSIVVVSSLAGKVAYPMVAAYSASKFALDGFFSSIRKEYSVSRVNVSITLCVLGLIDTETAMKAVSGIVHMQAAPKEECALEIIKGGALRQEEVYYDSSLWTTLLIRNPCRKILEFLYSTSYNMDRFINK
row,inhibition at 30 µM [%],Structure (SMILES)
1,99,"COc1ncc(C(=O)NC2C3CC4CC2CC(O)(C4)C3)c(C2(C)CC2)n1 (centres unmarked) [Example 187, N-[(2r,5 s)-5-hydroxyadamantan-2-yl]-2-methoxy-4-(1-methylcyclopropyl)pyrimidine-5-carboxamide]"
2,100,"O=C(N[C@H]1C2CC3CC1C[C@@](O)(C3)C2)c1cnc(N2CC3CC2CS3(=O)=O)nc1C1CC1 [Example 48, 4-Cyclopropyl-2-(3,3-dioxo-3λ6-thia-6-azabicyclo[2.2.1]heptan-6-yl)-N-[(2r,5 s)-5-hydroxyadamantan-2-yl]pyrimidine-5-carboxamide]"
3,95.5,"CCCSc1nc(N2CCN(C(C)=O)CC2)ncc1C(=O)NC1C2CC3CC(C2)CC1C3 (centres unmarked) [Example 27, 2-(4-Acetylpiperazin-1-yl)-N-(2-adamantyl)-4-propylsulfanyl-pyrimidine-5-carboxamide]"

# More lines, now with the values behind:
row,Structure (SMILES),inhibition at 30 µM [%]
1,"O=C(N[C@H]1C2CC3CC1C[C@@](O)(C3)C2)c1cnc(NC2CCOCC2)nc1C1CCC1 [Example 96, 4-cyclobutyl-N-[(2r,5s)-5-hydroxyadamantan-2-yl]-2-(tetrahydro-2H-pyran-4-ylamino)pyrimidine-5-carboxamide]",97.4
2,"CN(C)c1ncc(C(=O)N[C@H]2C3CC4CC2C[C@@](O)(C4)C3)c(N(C)C)n1 [Example 199, 2,4-bis(dimethylamino)-N-[(2r,5s)-5-hydroxyadamantan-2-yl]pyrimidine-5-carboxamide]",96.8
